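48-hour exposure; five concentrations; linearly interpolated endpoints. Here, GI50 denotes the concentration required for 50% inhibition of growth.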 Activity calls are given as the source filed them. Rule as the data show it: active = GI50 up to about 1.1 µM and inactive = higher.
Key:
Test in all cases: NCI-60 cell line screen, 48 h
NCI-H522 = tested on: NCI-H522
HOP-92 = tested on: HOP-92
KM12 = tested on: KM12
OVCAR-5 = tested on: OVCAR-5
SNB-75 = tested on: SNB-75
OVCAR-3 = tested on: OVCAR-3
UACC-257 = tested on: UACC-257
SK-OV-3 = tested on: SK-OV-3
RPMI-8226 = tested on: RPMI-8226
SK-MEL-5 = tested on: SK-MEL-5
SF-539 = tested on: SF-539
HCC 2998 = tested on: HCC 2998
MCF7 = tested on: MCF7
SF-268 = tested on: SF-268
MDA-N = tested on: MDA-N
PC-3 = tested on: PC-3
TK-10 = tested on: TK-10
SR = tested on: SR
M14 = tested on: M14
T47D = tested on: T47D

SMILES	GI50 (NCI-H522)	GI50 (HOP-92)	GI50 (KM12)	GI50 (OVCAR-5)	GI50 (SNB-75)	GI50 (OVCAR-3)	GI50 (UACC-257)	GI50 (SK-OV-3)	GI50 (RPMI-8226)	GI50 (SK-MEL-5)	GI50 (SF-539)	GI50 (HCC 2998)	GI50 (MCF7)	GI50 (SF-268)	GI50 (MDA-N)	GI50 (PC-3)	GI50 (TK-10)	GI50 (SR)	GI50 (M14)	GI50 (T47D)
CC(=O)OC1CC2(O)C(CCC3(C)C(c4ccc(=O)oc4)CCC32O)C2(C)C1=CC(O)C1OC12 (centres undefined)	0.025 µM (active)	0.0538 µM (active)	0.067 µM (active)	0.239 µM (active)	0.0624 µM (active)	0.0316 µM (active)	0.0441 µM (active)	0.0843 µM (active)	0.0675 µM (active)	0.025 µM (active)	0.0375 µM (active)	0.114 µM (active)	0.0552 µM (active)	0.0295 µM (active)	–	–	–	–	–	–
CC1=C(C)[C@@]2(C)O[C@@]2(C)O[C@@]2(C)O[C@@]12C	> 100 µM (inactive)	> 100 µM (inactive)	> 100 µM (inactive)	> 100 µM (inactive)	> 100 µM (inactive)	–	> 100 µM (inactive)	> 100 µM (inactive)	–	> 100 µM (inactive)	–	–	> 100 µM (inactive)	> 100 µM (inactive)	> 100 µM (inactive)	> 100 µM (inactive)	> 100 µM (inactive)	> 100 µM (inactive)	> 100 µM (inactive)	> 100 µM (inactive)
COC(=S)OC1CC(n2cnc3c(N)ncnc32)OC1CO[Si](C)(C)C(C)(C)C (centres undefined)	–	31 µM (inactive)	23.7 µM (inactive)	20.6 µM (inactive)	–	15.3 µM (inactive)	21.3 µM (inactive)	24 µM (inactive)	19 µM (inactive)	–	–	–	19.1 µM (inactive)	–	18.5 µM (inactive)	12.1 µM (inactive)	33.3 µM (inactive)	17.5 µM (inactive)	16.4 µM (inactive)	11.8 µM (inactive)
Cc1ccc2oc3c(ccc(=O)n3C)c(=O)c2c1	> 100 µM (inactive)	> 100 µM (inactive)	> 100 µM (inactive)	> 100 µM (inactive)	> 100 µM (inactive)	> 100 µM (inactive)	–	> 100 µM (inactive)	–	> 100 µM (inactive)	> 100 µM (inactive)	> 100 µM (inactive)	> 100 µM (inactive)	> 100 µM (inactive)	> 100 µM (inactive)	> 100 µM (inactive)	> 100 µM (inactive)	> 100 µM (inactive)	> 100 µM (inactive)	> 100 µM (inactive)
COc1cccc(C2C(C(=O)O)=C(CO)Oc3cc4c(cc32)OCO4)c1OC (centres undefined)	> 100 µM (inactive)	97.7 µM (inactive)	–	–	> 100 µM (inactive)	> 100 µM (inactive)	–	> 100 µM (inactive)	> 100 µM (inactive)	> 100 µM (inactive)	> 100 µM (inactive)	–	–	> 100 µM (inactive)	–	–	> 100 µM (inactive)	–	> 100 µM (inactive)	–
COC(=O)C1=C(C)N2CCOC2(C)C(C(=O)OC)C1c1ccc[nH]1 (centres undefined)	–	> 100 µM (inactive)	> 100 µM (inactive)	–	18.7 µM (inactive)	> 100 µM (inactive)	> 100 µM (inactive)	–	> 100 µM (inactive)	> 100 µM (inactive)	> 100 µM (inactive)	> 100 µM (inactive)	–	> 100 µM (inactive)	–	–	> 100 µM (inactive)	> 100 µM (inactive)	> 100 µM (inactive)	–
Cc1cc(S(=O)(=O)Nc2nc(Nc3ccccc3)n[nH]2)c(SSc2cc(Cl)c(C)cc2S(=O)(=O)Nc2nc(Nc3ccccc3)n[nH]2)cc1Cl	–	–	> 100 µM (inactive)	> 100 µM (inactive)	> 100 µM (inactive)	> 100 µM (inactive)	> 100 µM (inactive)	> 100 µM (inactive)	> 100 µM (inactive)	> 100 µM (inactive)	> 10 µM (inactive)	–	> 10 µM (inactive)	86.7 µM (inactive)	> 100 µM (inactive)	> 100 µM (inactive)	90.8 µM (inactive)	40.2 µM (inactive)	> 100 µM (inactive)	67.5 µM (inactive)
O=c1cc(-c2cc(O)c(O)c(-c3c(O)cc4oc(-c5ccc(O)c(O)c5)cc(=O)c4c3O)c2)oc2cc(O)cc(O)c12	–	> 25 µM (inactive)	–	> 25 µM (inactive)	24.9 µM (inactive)	> 25 µM (inactive)	> 25 µM (inactive)	> 25 µM (inactive)	–	> 25 µM (inactive)	> 25 µM (inactive)	> 25 µM (inactive)	> 25 µM (inactive)	> 25 µM (inactive)	> 25 µM (inactive)	> 25 µM (inactive)	> 25 µM (inactive)	> 25 µM (inactive)	> 25 µM (inactive)	11.3 µM (inactive)
Cc1cc(C)nc(NS(=O)(=O)c2ccc(Nc3c4ccccc4nc4c(C(=O)N5CCN(CCOS(C)(=O)=O)CC5)cccc34)cc2)n1	–	> 100 µM (inactive)	> 100 µM (inactive)	> 100 µM (inactive)	49.9 µM (inactive)	96.4 µM (inactive)	> 100 µM (inactive)	> 100 µM (inactive)	> 100 µM (inactive)	> 100 µM (inactive)	> 100 µM (inactive)	> 100 µM (inactive)	–	> 100 µM (inactive)	–	–	> 100 µM (inactive)	–	> 100 µM (inactive)	–

— ChEMBL document CHEMBL1201862, “PubChem BioAssay data set” (2004)
